Values of other authors as cited in patent publication US8097726B2, “Huperzine a compound for treatment of alzheimer's disease” (priority 2006, dated 2012).

Assays:
[1] = rapidly eliminated from the kidneys
[2] = administered orally at 0.2 mg twice a day for 8 weeks; AD patients

For `C/C=C1\[C@H]2C=C(C)C[C@]1(N)c1ccc(=O)[nH]c1C2` [huperzine A], the half-life in plasma [1] is given as 4 to 5 h and the “patients with significant improvement in memory, cognition and behavior” value [2] is given as 58%.
